Data reported in US7183415B2, “Quinoline compound” (Takeda Pharmaceutical Company Limited, priority 2001, dated 2007).

`Cc1ccc(C2CCN(C(=O)Nc3ccc4cc(CN5CCCC5)cnc4c3)CC2)cc1` [Example 15, 4-(4-methylphenyl)-N-[3-(1-pyrrolidinylmethyl)-7-quinolinyl]-1-piperidine carboxamide] gave a melting point of 244 to 246 °C. Compound `O=C(Nc1ccc2cc(CN3CCCC3)cnc2c1)N1CCC(c2ccc(Cl)cc2)CC1` [Example 16, 4-(4-chlorophenyl)-N-[3-(1-pyrrolidinylmethyl)-7-quinolinyl]-1-piperidine carboxamide] has a melting point of 249 to 251 °C. For `Cc1c(NC(=O)c2ccc(-c3ccccc3)cc2)ccc2cc(CN3CCCC3)cnc12` [Example 17, N-[8-methyl-3-(1-pyrrolidinylmethyl)-7-quinolinyl][1,1′-biphenyl]-4-carboxamide], the melting point was 184 to 186 °C. Compound `COc1ccc(-c2ccc(C(=O)Nc3ccc4cc(CN5CCCC5)cnc4c3C)cc2)cc1` [Example 18, 4′-methoxy-N-[8-methyl-3-(1-pyrrolidinylmethyl)-7-quinolinyl][1,1′-biphenyl]-4-carboxamide] has a melting point of 210 to 213 °C. For `Cc1ccc(-c2ccc(C(=O)Nc3ccc4cc(CN5CCCC5)cnc4c3C)cc2)cc1` [Example 20, 4′-methyl-N-[8-methyl-3-(1-pyrrolidinylmethyl)-7-quinolinyl][1,1′-biphenyl]-4-carboxamide], the melting point was 177 to 179 °C. In the case of `Cc1c(NC(=O)c2ccc(-c3ccc(Cl)cc3)cc2)ccc2cc(CN3CCCC3)cnc12` [Example 21, 4′-chloro-N-[8-methyl-3-(1-pyrrolidinylmethyl)-7-quinolinyl][1,1′-biphenyl]-4-carboxamide], the melting point is reported as 227 to 229 °C. With `CCN(CC)Cc1cnc2cc(NC(=O)c3ccc(-c4ccc(Cl)cc4)cc3)c(OC)cc2c1` [Example 22, 4′-chloro-N-{3-[(diethylamino)methyl]-6-methoxy-7-quinolinyl}[1,1′-biphenyl]-4-carboxamide] the melting point was 271 °C (dec.). With `COc1cc2cc(CN3CCCC3)cnc2cc1NC(=O)c1ccc(-c2ccc(Cl)cc2)cc1` [Example 23, 4′-chloro-N-[6-methoxy-3-(1-pyrrolidinylmethyl)-7-quinolinyl][1,1′-biphenyl]-4-carboxamide] the melting point was 271 °C (dec.). In the case of `COc1cc2cc(CN3CCCCC3)cnc2cc1NC(=O)c1ccc(-c2ccc(Cl)cc2)cc1` [Example 24, 4′-chloro-N-[6-methoxy-3-(1-piperidinylmethyl)-7-quinolinyl][1,1′-biphenyl]-4-carboxamide], the melting point is reported as 236 °C (dec.). In the case of `O=C(Nc1cc2ncc(CN3CCCC3)cc2cc1Cl)c1ccc(-c2ccc(Cl)cc2)cc1` [Example 25, 4′-chloro-N-[6-chloro-3-(1-pyrrolidinylmethyl)-7-quinolinyl][1,1′-biphenyl]-4-carboxamide], the melting point is reported as 188 °C (dec.). With `Cc1ccc(-c2ccc(C(=O)Nc3ccc4cc(CN5CCC(C(N)=O)CC5)cnc4c3C)cc2)cc1` [Example 26, 1-[(8-methyl-7-{[(4′-methyl-1,1′-biphenyl-4-yl)carbonyl]amino}-3-quinolinyl)methyl]-4-piperidine carboxamide] the melting point was 287 °C (dec.). With `O=C(Nc1ccc2cc(CN3CCCCCC3)cnc2c1)c1ccc(-c2ccc(Cl)cc2)cc1` [Example 27, N-[3-(1-azepanylmethyl)-7-quinolinyl]-4′-chloro[1,1′-biphenyl]-4-carboxamide] the melting point was 204 °C. In the case of `Cc1ccc(-c2ccc(C(=O)Nc3ccc4cc(CN5CCCCCC5)cnc4c3)cc2)cc1` [Example 28, N-[3-(1-azepanylmethyl)-7-quinolinyl]-4′-methyl[1,1′-biphenyl]-4-carboxamide], the melting point is reported as 209 °C. `O=C(Nc1ccc2cc(CN3CCCCCC3)cnc2c1)c1ccc(-c2ccc(F)cc2)cc1` [Example 29, N-[3-(1-azepanylmethyl)-7-quinolinyl]-4′-fluoro[1,1′-biphenyl]-4-carboxamide] showed a melting point of 202 °C. In the case of `COc1ccc(-c2ccc(C(=O)Nc3ccc4cc(CN5CCCCCC5)cnc4c3)cc2)cc1` [Example 30, N-[3-(1-azepanylmethyl)-7-quinolinyl]-4′-methoxy[1,1′-biphenyl]-4-carboxamide], the melting point is reported as 212 °C (dec.). For `O=C(Nc1ccc2cc(CN3CCCCCC3)cnc2c1)c1ccc(-c2ccccc2)cc1` [Example 31, N-[3-(1-azepanylmethyl)-7-quinolinyl][1,1′-biphenyl]-4-carboxamide], the melting point was 205 °C (dec.). For `O=C(Nc1ccc2cc(CN3CCCCCC3)cnc2c1)c1ccc(-c2ccc(Cl)cc2)nc1` [Example 32, N-[3-(1-azepanylmethyl)-7-quinolinyl]-6-(4-chlorophenyl)nicotinamide], the melting point was 233 °C (dec.). In the case of `Cc1ccc(-c2ccc(C(=O)Nc3ccc4cc(CN5CCCCCC5)cnc4c3)cn2)cc1` [Example 33, N-[3-(1-azepanylmethyl)-7-quinolinyl]-6-(4-methylphenyl)nicotinamide], the melting point is reported as 237 °C (dec.). In the case of `O=C(Nc1ccc2cc(CN3CCCCCC3)cnc2c1)N1CCC(c2ccc(Cl)cc2)CC1` [Example 34, N-[3-(1-azepanylmethyl)-7-quinolinyl]-4-(4-chlorophenyl)-1-piperidine carboxamide], the melting point is reported as 247 °C (dec.). In the case of `Cc1ccc(C2CCN(C(=O)Nc3ccc4cc(CN5CCCCCC5)cnc4c3)CC2)cc1` [Example 35, N-[3-(1-azepanylmethyl)-7-quinolinyl]-4-(4-methylphenyl)-1-piperidine carboxamide], the melting point is reported as 240 °C (dec.). `Cc1cc2cc(CN3CCCC3)cnc2cc1NC(=O)c1ccc(-c2ccc(Cl)cc2)cc1` [Example 39, 4′-chloro-N-[6-methyl-3-(1-pyrrolidinylmethyl)-7-quinolinyl][1,1′-biphenyl]-4-carboxamide] gave a melting point of 214 to 217 °C. For `NC(=O)C1CCN(Cc2cnc3cc(NC(=O)c4ccc(-c5ccc(F)cc5)cc4)ccc3c2)CC1` [Example 42, 1-[(7-{[(4′-fluoro[1,1′-biphenyl]-4-yl)carbonyl]amino}-3-quinolinyl)methyl]-4-piperidine carboxamide], the melting point was 261 to 265 °C. Compound `CC(=O)NC1CCN(Cc2cnc3cc(NC(=O)c4ccc(-c5ccc(F)cc5)cc4)ccc3c2)C1` (stereo not shown) [Example 43, N-(3-{[3-(acetylamino)-1-pyrrolidinyl]methyl}-7-quinolinyl)-4′-fluoro[1,1′-biphenyl]-4-carboxamide] has a melting point of 250 to 253 °C. `CCNC(=O)CC1CCN(Cc2cnc3cc(NC(=O)c4ccc(-c5ccc(F)cc5)cc4)ccc3c2)CC1` [Example 44, N-[3-({4-[2-(ethylamino)-2-oxoethyl]-1-piperidinyl}methyl)-7-quinolinyl]-4′-fluoro[1,1′-biphenyl]-4-carboxamide] gave a melting point of 224 to 227 °C. With `O=C(Nc1ccc2cc(CN3CCC(CO)CC3)cnc2c1)c1ccc(-c2ccc(F)cc2)cc1` [Example 45, 4′-fluoro-N-(3-{[4-(hydroxymethyl)-1-piperidinyl]methyl}-7-quinolinyl)[1,1′-biphenyl]-4-carboxamide] the melting point was 191 to 195 °C. With `O=C(Nc1ccc2cc(CN3CCC(CCO)CC3)cnc2c1)c1ccc(-c2ccc(F)cc2)cc1` [Example 46, 4′-fluoro-N-(3-{[4-(2-hydroxyethyl)-1-piperidinyl]methyl}-7-quinolinyl)[1,1′-biphenyl]-4-carboxamide] the melting point was 193 to 196 °C. Compound `CCNC(=O)CCCC1CCN(Cc2cnc3cc(NC(=O)c4ccc(-c5ccc(F)cc5)cc4)ccc3c2)CC1` [Example 47, N-[3-({4-[4-(ethylamino)-4-oxobutyl]-1-piperidinyl}methyl)-7-quinolinyl]-4′-fluoro[1,1′-biphenyl]-4-carboxamide] has a melting point of 209 to 213 °C. For `CCNC(=O)COC1CCN(Cc2cnc3cc(NC(=O)c4ccc(-c5ccc(F)cc5)cc4)ccc3c2)CC1` [Example 48, N-[3-({4-[2-(ethylamino)-2-oxoethoxy]-1-piperidinyl}methyl)-7-quinolinyl]-4′-fluoro[1,1′-biphenyl]-4-carboxamide], the melting point was 228 to 230 °C. `O=C(Nc1cc2ncc(CN3CCCC3)cc2cc1F)c1ccc(-c2ccc(F)cc2)cc1` [Example 50, 4′-fluoro-N-[6-fluoro-3-(1-pyrrolidinylmethyl)-7-quinolinyl][1,1′-biphenyl]-4-carboxamide] gave a melting point of 198 to 200 °C. `O=C(Nc1cc2ncc(CN3CCCC3)cc2cc1F)c1ccc(-c2ccc(Cl)cc2)cc1` [Example 51, 4′-chloro-N-[6-fluoro-3-(1-pyrrolidinylmethyl)-7-quinolinyl][1,1′-biphenyl]-4-carboxamide] showed a melting point of 218 to 220 °C. In the case of `O=C(Nc1cc2ncc(CN3CCCC3)cc2cc1F)c1ccc(-c2ccccc2)cc1` [Example 52, N-[6-fluoro-3-(1-pyrrolidinylmethyl)-7-quinolinyl][1,1′-biphenyl]-4-carboxamide], the melting point is reported as 206 to 208 °C. `COc1ccc(-c2ccc(C(=O)Nc3cc4ncc(CN5CCCC5)cc4cc3F)cc2)cc1` [Example 53, N-[6-fluoro-3-(1-pyrrolidinylmethyl)-7-quinolinyl]-4′-methoxy[1,1′-biphenyl]-4-carboxamide] gave a melting point of 184 to 186 °C. `Cc1ccc(-c2ccc(C(=O)Nc3cc4ncc(CN5CCCC5)cc4cc3F)cc2)cc1` [Example 54, N-[6-fluoro-3-(1-pyrrolidinylmethyl)-7-quinolinyl]-4′-methyl[1,1′-biphenyl]-4-carboxamide] showed a melting point of 202 to 204 °C. Compound `O=C(Nc1cc2ncc(CN3CCCC3)cc2cc1F)c1ccc(-c2ccc(C(F)(F)F)cc2)cc1` [Example 55, N-[6-fluoro-3-(1-pyrrolidinylmethyl)-7-quinolinyl]-4′-(trifluoromethyl)[1,1′-biphenyl]-4-carboxamide] has a melting point of 209 to 212 °C. In the case of `O=C(Nc1cc2ncc(CN3CCCC3)cc2cc1F)c1ccc(-c2ccc(OC(F)(F)F)cc2)cc1` [Example 56, N-[6-fluoro-3-(1-pyrrolidinylmethyl)-7-quinolinyl]-4′-(trifluoromethoxy)[1,1′-biphenyl]-4-carboxamide], the melting point is reported as 184 to 187 °C. Work on `O=C(Nc1cc2ncc(CN3CCCC3)cc2cc1F)c1ccc(-c2ccccc2)cc1F` [Example 58, 3-fluoro-N-[6-fluoro-3-(1-pyrrolidinylmethyl)-7-quinolinyl][1,1′-biphenyl]-4-carboxamide] yielded a melting point of 163 to 164 °C. Work on `COc1ccc(-c2ccc(C(=O)Nc3cc4ncc(CN5CCCC5)cc4cc3F)c(F)c2)cc1` [Example 59, 3-fluoro-N-[6-fluoro-3-(1-pyrrolidinylmethyl)-7-quinolinyl]-4′-methoxy[1,1′-biphenyl]-4-carboxamide] yielded a melting point of 174 to 176 °C.
